System: blood DHT
Assay: concentration of blood DHT in mice after oral administration, measured by ELISA
Type: in vivo
Settings: male C57BL/6 mice, oral finasteride 100 μg/mouse/day for 3 weeks, FIG. 4
Procedure: To confirm the inhibition effect of hardy kiwi extract on the concentration of blood DHT, the water extract and ethanol extract of fruit of Actinidia arguta were administrated into mice and the concentration of blood DHT were determined by following procedure;
Male C57BL/6 mice, aged 6 weeks (Seoul national university animal experimental center) were acclimated to the environment for 1 week. After 1 week, 16 mice were divided into 4 groups and each group was orally administered with 100 μl of the water extract of fruit of Actinidia arguta (1500 μg/mouse/day), 100 μl of the ethanol extract of fruit of Actinidia arguta (1500 μg/mouse/day), 100 μl of finasteride (100 μg/mouse/day), and 100 μl of drinking water (100 μg/mouse/day) for 3 weeks, respectively. After mice were sacrificed and the blood serum and spleen organ were colllected therefrom, the concentration of blood DHT was measured by ELISA (IBL-Hamburg GmbH) method. […]
After 1 week, 8 mice were divided into 2 groups and each group was orally administered with 100 μl of the water extract of dried stem of A. arguta (1500 μg/mouse/day) and 100 μl of drinking water (100 μg/mouse/day) for 3 weeks, respectively. After mice were sacrificed and the blood serum and spleen organ was colllected therefrom, the concentration of blood DHT was measured.

## CC(C)(C)NC(=O)[C@H]1CC[C@H]2[C@@H]3CC[C@H]4NC(=O)C=C[C@]4(C)[C@H]3CC[C@]12C [finasteride]
  decrease of concentration of blood DHT: about 90%

From patent US8394426B2, “Composition comprising an extract of hardy kiwi for preventing or treating baldness disorders or seborrheic skin disorders” (Viromed Co., Ltd., priority 2004, dated 2013)
